Assay results: the supplement of paper PMC11208160

Assay: recombinant UMI read abundance after kanamycin selection (control-corrected) (log10(CPM+1)); higher = more efficient recombination; extreme values may be limits of the assay; sequences stand for … in AGTGCAGAGAAAATCGGCCAGTTTTCTCTGCCTGCAGTCCGCATGCCGTGGGACCCCTTGGGTTCTAACCTGTTGCCTAGATTTATGCAGCGGACTGCCTTTCTCCCAAAGTGATAAACCGG…AGGTTGGTTTCACT; site = the 11-nt donor
Summary of the method: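 Under IPTG (0.07 mM) plus kanamycin, or without selection, Escherichia coli carrying a UMI-tagged donor and donor-binding-loop pair library and a target plasmid for the IS621 bridge recombinase were plated in two replicates. Recombinant UMIs were PCR-amplified across the donor–target junction and sequenced. Counts were converted to CPM, averaged over replicates, scaled by control-derived factors and reported as log10(CPM+1).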
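Also: IS621 bridge recombinase in Escherichia coli cells against a fixed T5 target plasmid.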

“AGCCTTGCATGGACCGGTTTTCCCGGTAATCCGTATTTGAC (site AGCCTTTCTGT)” and “AGCCTTTCATGGACCGGTTTTCCCGGTAATCCGTATTTGTC (site AGCCTTTCTGA)” are the same in “recombinant UMI read abundance (log10)” value: 0 for the first, 0 for the second.

“AGCCTTTCATGGACCGGTTTTCCCGGTAATCCGTATTTGTC (site AGCCTTTCTGC)” and “AGCCTTTCATGGACCGGTTTTCCCGGTAATCCGTATTTGTC (site AGCCTTTCTGG)” are the same in “recombinant UMI read abundance (log10)” value: 0 for the first, 0 for the second.

Compared with “AGCCTTTCATGGACCGGTTTTCCCGGTAATCCGTATTTGTC (site AGCCTTTCTGT)”, “AGCGAGTCATGGACCGGTTTTCCCGGTAATCCGTATTTGAT (site AGCGAGTCTAT)” is higher in “recombinant UMI read abundance (log10)” value: 0.00535 for the first, 2.73 for the second.

Going from “AGCTAACCATGGACCGGTTTTCCCGGTAATCCGTATTTGCA (site AGCTAACCTTG)” to “AGCTAGTCATGGACCGGTTTTCCCGGTAATCCGTATTTGAG (site AGCTAGTCTCT)”, the “recombinant UMI read abundance (log10)” value rises from 0 to 2.57.

First: AGCTATACATGGACCGGTTTTCCCGGTAATCCGTATTTGAC (site AACTATACTGT)
Second: AGCTATACATGGACCGGTTTTCCCGGTAATCCGTATTTGAC (site ACCTATACTGT)
The “recombinant UMI read abundance (log10)” value of the first is lower: 0.393 for the first, 0.726 for the second.

“AGCTATACATGGACCGGTTTTCCCGGTAATCCGTATTTGAC (site AGCTATACTGT)” and “AGCTATACATGGACCGGTTTTCCCGGTAATCCGTATTTGAC (site ATCTATACTGT)” are within 0.2 log units of each other in “recombinant UMI read abundance (log10)” value: 2.03 for the first, 1.85 for the second.

“AGCTCATCATGGACCGGTTTTCCCGGTAATCCGTATTTGGG (site AGCTCAACTCC)” and “AGCTCATCATGGACCGGTTTTCCCGGTAATCCGTATTTGGG (site AGCTCACCTCC)” are within 0.2 log units of each other in “recombinant UMI read abundance (log10)” value: 0 for the first, 0.0192 for the second.

First: AGCTCATCATGGACCGGTTTTCCCGGTAATCCGTATTTGGG (site AGCTCAGCTCC)
Second: AGCTCATCATGGACCGGTTTTCCCGGTAATCCGTATTTGGG (site AGCTCATCTCC)
The “recombinant UMI read abundance (log10)” value of the first is lower: 0.0292 for the first, 0.833 for the second.

“AGCTCCCCATGGACCGGTTTTCCCGGTAATCCGTATTTGGG (site AGCTCCCCTCC)” and “AGCTGAGCATGGACCGGTTTTCCCGGTAATCCGTATTTGGG (site AGCTAAGCTCC)” are within 0.2 log units of each other in “recombinant UMI read abundance (log10)” value: 0.111 for the first, 0.0048 for the second.

First: AGCTGAGCATGGACCGGTTTTCCCGGTAATCCGTATTTGGG (site AGCTCAGCTCC)
Second: AGCTGAGCATGGACCGGTTTTCCCGGTAATCCGTATTTGGG (site AGCTGAGCTCC)
The “recombinant UMI read abundance (log10)” value of the first is lower: 0 for the first, 0.385 for the second.

First: AGCTGAGCATGGACCGGTTTTCCCGGTAATCCGTATTTGGG (site AGCTTAGCTCC)
Second: AGCTGCGCATGGACCGGTTTTCCCGGTAATCCGTATTTGAA (site AGCTGCGCTTT)
The “recombinant UMI read abundance (log10)” value of the first is lower: 0.0451 for the first, 1.4 for the second.

First: AGCTTCGCATGGACCGGTTTTCCCGGTAATCCGTATTTGAC (site AGCTTCGCTGT)
Second: AGCTTTTCATGGACCGGTTTTCCCGGTAATCCGTATTTGAC (site AGCATTTCTGT)
The “recombinant UMI read abundance (log10)” value of the first is higher: 1.58 for the first, 0 for the second.

“AGCTTTTCATGGACCGGTTTTCCCGGTAATCCGTATTTGAC (site AGCCTTTCTGT)” and “AGCTTTTCATGGACCGGTTTTCCCGGTAATCCGTATTTGAC (site AGCGTTTCTGT)” are the same in “recombinant UMI read abundance (log10)” value: 0 for the first, 0 for the second.

Compared with “AGCTTTTCATGGACCGGTTTTCCCGGTAATCCGTATTTGAC (site AGCTTTTCTGT)”, “AGGAAAACATGGACCGGTTTTCCCGGTAATCCGTATTTGCG (site AGGAAAACTCG)” is higher in “recombinant UMI read abundance (log10)” value: 0.00446 for the first, 1.5 for the second.

Going from “AGGAAAACATGGACCGGTTTTCCCGGTAATCCGTATTTGCG (site AGGAAGACTTG)” to “AGGAAAACATGGACCGGTTTTCCCGGTAATCCGTATTTGGG (site AGGAAAACTCC)”, the “recombinant UMI read abundance (log10)” value rises from 0 to 0.592.

Going from “AGGAACACATGGACCGGTTTTCCCGGTAATCCGTATTTGCC (site AGGAACACTGG)” to “AGGAACACATGGACCGGTTTTCCCGGTAATCCGTATTTGCC (site AGGAAGACTTG)”, the “recombinant UMI read abundance (log10)” value falls from 3.08 to 0.

Going from “AGGAAGACATGGACCGGTTTTCCCGGTAATCCGTATTTGCT (site AGGAAGACTAG)” to “AGGAAGACATGGACCGGTTTTCCCGGTAATCCGTATTTGCT (site AGGAAGACTCG)”, the “recombinant UMI read abundance (log10)” value falls from 2.25 to 0.519.

Compared with “AGGAAGACATGGACCGGTTTTCCCGGTAATCCGTATTTGCT (site AGGAAGACTGG)”, “AGGAAGACATGGACCGGTTTTCCCGGTAATCCGTATTTGCT (site AGGAAGACTTG)” is higher in “recombinant UMI read abundance (log10)” value: 0 for the first, 1.46 for the second.

First: AGGAAGACATGGACCGGTTTTCCCGGTAATCCGTATTTGGA (site AGGAAGACTTA)
Second: AGGAAGACATGGACCGGTTTTCCCGGTAATCCGTATTTGGA (site AGGAAGACTTC)
The “recombinant UMI read abundance (log10)” value of the first is lower: 1.71 for the first, 2.32 for the second.

Going from “AGGAAGACATGGACCGGTTTTCCCGGTAATCCGTATTTGGA (site AGGAAGACTTG)” to “AGGAAGACATGGACCGGTTTTCCCGGTAATCCGTATTTGGA (site AGGAAGACTTT)”, the “recombinant UMI read abundance (log10)” value rises from 1.04 to 1.63.

Compared with “AGGAAGACATGGACCGGTTTTCCCGGTAATCCGTATTTGTG (site AGGAAGACTCA)”, “AGGAAGACATGGACCGGTTTTCCCGGTAATCCGTATTTGTG (site AGGAAGACTTG)” is lower in “recombinant UMI read abundance (log10)” value: 2.35 for the first, 0.492 for the second.

Compared with “AGGAAGCCATGGACCGGTTTTCCCGGTAATCCGTATTTGAA (site AGGAAGACTTG)”, “AGGAAGCCATGGACCGGTTTTCCCGGTAATCCGTATTTGAA (site AGGAAGCCTTT)” is higher in “recombinant UMI read abundance (log10)” value: 0 for the first, 0.308 for the second.

“AGGAAGCCATGGACCGGTTTTCCCGGTAATCCGTATTTGCA (site AGGAAGACTTG)” and “AGGAAGCCATGGACCGGTTTTCCCGGTAATCCGTATTTGCA (site AGGAAGCCTTG)” are the same in “recombinant UMI read abundance (log10)” value: 0 for the first, 0 for the second.

“AGGAAGCCATGGACCGGTTTTCCCGGTAATCCGTATTTGCA (site AGGAAGGCTTG)” and “AGGAAGCCATGGACCGGTTTTCCCGGTAATCCGTATTTGCA (site AGGAAGTCTTG)” are the same in “recombinant UMI read abundance (log10)” value: 0 for the first, 0 for the second.

First: AGGAAGTCATGGACCGGTTTTCCCGGTAATCCGTATTTGCG (site AGGAAGACTTG)
Second: AGGAAGTCATGGACCGGTTTTCCCGGTAATCCGTATTTGCG (site AGGAAGTCTCG)
The “recombinant UMI read abundance (log10)” value of the first is lower: 0 for the first, 3.16 for the second.

Compared with “AGGAAGTCATGGACCGGTTTTCCCGGTAATCCGTATTTGTA (site AGGAAGACTTG)”, “AGGAAGTCATGGACCGGTTTTCCCGGTAATCCGTATTTGTA (site AGGAAGTCTTA)” is higher in “recombinant UMI read abundance (log10)” value: 0 for the first, 2.97 for the second.

Going from “AGGAATACATGGACCGGTTTTCCCGGTAATCCGTATTTGAC (site AGGAATACTGT)” to “AGGAATACATGGACCGGTTTTCCCGGTAATCCGTATTTGAC (site AGGACTACTGT)”, the “recombinant UMI read abundance (log10)” value falls from 1.74 to 0.624.

“AGGAATACATGGACCGGTTTTCCCGGTAATCCGTATTTGAC (site AGGAGTACTGT)” and “AGGAATACATGGACCGGTTTTCCCGGTAATCCGTATTTGAC (site AGGATTACTGT)” are the same in “recombinant UMI read abundance (log10)” value: 0 for the first, 0 for the second.

Compared with “AGGAATACATGGACCGGTTTTCCCGGTAATCCGTATTTGGC (site AGGAATACTGC)”, “AGGAATCCATGGACCGGTTTTCCCGGTAATCCGTATTTGCT (site AGGAATCCTAG)” is lower in “recombinant UMI read abundance (log10)” value: 2.59 for the first, 0 for the second.

Going from “AGGAATCCATGGACCGGTTTTCCCGGTAATCCGTATTTGCT (site CGGAATCCTAA)” to “AGGAATCCATGGACCGGTTTTCCCGGTAATCCGTATTTGTT (site AGGAATCCTAA)”, the “recombinant UMI read abundance (log10)” value rises from 0.0057 to 0.74.

“AGGAATCCATGGACCGGTTTTCCCGGTAATCCGTATTTGTT (site CGGAATCCTAA)” and “AGGAATCCATGGACCGGTTTTCCCGGTAATCCGTATTTGTT (site GGGAATCCTAA)” are within 0.2 log units of each other in “recombinant UMI read abundance (log10)” value: 0.0029 for the first, 0 for the second.

“AGGAATCCATGGACCGGTTTTCCCGGTAATCCGTATTTGTT (site TGGAATCCTAA)” and “AGGACCACATGGACCGGTTTTCCCGGTAATCCGTATTTGAC (site AGGACAACTGT)” are within 0.2 log units of each other in “recombinant UMI read abundance (log10)” value: 0 for the first, 0.0127 for the second.

Compared with “AGGACCACATGGACCGGTTTTCCCGGTAATCCGTATTTGAC (site AGGACCACTGT)”, “AGGACCACATGGACCGGTTTTCCCGGTAATCCGTATTTGAC (site AGGACGACTGT)” is lower in “recombinant UMI read abundance (log10)” value: 2.79 for the first, 0 for the second.

Going from “AGGACCACATGGACCGGTTTTCCCGGTAATCCGTATTTGAC (site AGGACTACTGT)” to “AGGATCCCATGGACCGGTTTTCCCGGTAATCCGTATTTGTG (site AGGATCCCTCA)”, the “recombinant UMI read abundance (log10)” value rises from 0 to 0.753.
